Assay results published in patent US4248882A, “Treating diabetes-associated complications with hydantoin amines” (Pfizer Inc., priority 1980, dated 1981).
Where a name gives a salt, the structure may show the parent alone.

Columns and labels:
[1] = tested on: sorbitol accumulation in the sciatic nerve; experiment: inhibition of sorbitol accumulation in the sciatic nerve of streptozotocinized (diabetic) rats; type: in vivo; details: oral 0.25 mg/kg at 4, 8 and 24 hours following streptozotocin; sorbitol in sciatic nerves measured 27 hours after induction of diabetes; versus untreated animal
Procedure: The compounds of Example 2 and 4 were tested for their ability to reduce or inhibit sorbitol accumulation in the sciatic nerve of streptozotocinized (i.e. diabetic) rats by the procedure essentially described in U.S. Pat. No. 3,821,383. In the present study, the amount of sorbitol accumulation in the sciatic nerves was measured 27 hours after induction of diabetes. The compounds were administered orally at the dose levels of 0.25 mg/kg at 4, 8 and 24 hours following the administration of streptozotocin. The results obtained in this manner are presented below in terms of percent inhibition (%) afforded by the test compound as compared to the case where no compound was administered (i.e. the untreated animal, where sorbitol levels normally rise from approximately […]. tissue to as high as 400 mM/g. tissue in the 27 hour test period): […]

[2] = tested on: aldose reductase; experiment: inhibition of aldose reductase enzyme activity (partially purified enzyme from human placenta); type: biochemical; details: percent inhibition of enzyme activity
Procedure: The compounds of Example 2 and 4 were tested for their ability to reduce or inhibit aldose reductase enzyme activity, following the procedure described in U.S. Pat. No. 3,821,383 and based on the procedure of Hayman et. al., Journal of Biological Chemistry, 240 877 (1965). The substrate employed was partially purified aldose reductase enzyme obtained from human placenta. The results obtained with each compound at a concentration of 10^-6 M are expressed as percent inhibition of enzyme activity.

SMILES | % Inhibition at 0.25 mg/kg [1] [%] | % Inhibition at 10^-6 M [2] [%]
Nc1cc(Cl)cc2c1OCCC21NC(=O)NC1=O (stereo not shown) [Example 2, 8-Amino-6-chloro-spiro[4H-2,3-dihydro-1-benzopyran-4,4'-imidazolidine]-2',5'-dione hydrochloride] | 17 | 58
Nc1cc(F)cc2c1OCC[C@]21NC(=O)NC1=O [Example 4, 4S-8-amino-6-fluoro-spiro[4H-2,3-dihydro-1-benzopyran-4,4'-imidazolidine]-2',5'-dione hydrochloride] | 40 | 40
